Results taken from US20240025862A1, “SUBSTITUTED N-PHENYLURACILS AND SALTS THEREOF, AND USE THEREOF AS HERBICIDAL ACTIVE SUBSTANCES” (Bayer Aktiengesellschaft, priority 2020, published 2024).

Columns and labels:
Type in all cases: in vivo
[1] = tested on: Abutilon theophrasti (ABUTH); assay: Post-emergence herbicidal action, greenhouse pot test; settings: rated visually after about 3 weeks vs untreated controls, 100% = plants have died
In short: (§1)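 Activity was scored by eye about 3 weeks after treatment against untreated plants, where 100% means dead plants and 0% means no difference. Plants at the one-leaf stage received a foliar spray of WP or EC formulations in water plus 0.5% additive (600 l/ha, up to 20 g/ha). Plants were grown in sandy loam pots in a greenhouse for 2–3 weeks before spraying.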

[2] = tested on: Amaranthus retroflexus (AMARE); assay: as above; settings: rated visually after about 3 weeks vs untreated controls, 100% = plants have died
In short: as §1

Avena fatua (AVEFA) = assay: as above; settings: 20 g/ha, rated visually after about 3 weeks vs untreated controls, 100% = plants have died
In short: as §1

Lolium rigidum (LOLRI) = assay: as above; settings: dosage 20 g/ha
In short: as §1

[3] = tested on: Pharbitis purpurea (PHBPU); assay: as above
In short: as §1

[4] = tested on: Polygonum convolvulus (POLCO); assay: as above
In short: as §1

Veronica persica (VERPE) = assay: as above
In short: as §1

Viola tricolor (VIOTR) = assay: as above
In short: as §1

[5] = tested on: Alopecurus myosuroides (ALOMY); assay: Post-emergence herbicidal action, greenhouse pot test (also comparative test C); settings: rated visually after about 3 weeks vs untreated controls, 100% = plants have died
In short: (§2)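 Visual rating against untreated controls, about 3 weeks after spraying, from 0% (like control) to 100% (plants dead). Weeds were treated at the one-leaf stage, 2–3 weeks after sowing in sandy loam, with aqueous WP/EC spray containing 0.5% additive at 600 l/ha. Doses were ≤20 g/ha, or ≤5 g/ha for comparative test C.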

[6] = tested on: Echinochloa crus-galli (ECHCG); assay: as above
In short: as §2

[7] = tested on: Matricaria inodora (MATIN); assay: as above
In short: as §2

Setaria viridis (SETVI) = assay: as above; settings: for Post-emergence action against SETVI: 20 g/ha
In short: as §2

Glycine max (GLXMA) = assay: Post-emergence crop plant compatibility, greenhouse pot test; settings: 1.25 g/ha
In short: (§3)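 Greenhouse pot test; post-emergence foliar spray at one-leaf stage, WP or EC in water + 0.5% additive, 600 l/ha. Visual rating after ~3 wk, % relative to untreated (0–100%).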

[8] = tested on: Triticum aestivum (TRZAS); assay: as above; settings: vs untreated controls
In short: as §3

Zea mays (ZEAMX) = assay: as above; settings: vs untreated controls
In short: as §3

Oryza sativa (ORYSA) = assay: Post-emergence crop plant compatibility, greenhouse pot test (also comparative test C); settings: for Post-emergence action against ORYSA (crop plant compatibility): vs untreated controls; for Post-emergence action against ORYSA in %: 20 g/ha, crop plant compatibility
In short: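 Visual damage versus untreated plants (0% = like control, 100% = plants died) was scored about 3 weeks after a post-emergence spray in greenhouse pots. Treatment: one-leaf stage, WP or EC in water at 600 l/ha with 0.5% additive; a/b/c mark different dosages on the same crop.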

Cn1c(C(F)(F)F)cc(=O)n(-c2cc(Oc3ccccc3OCC(=O)OCc3ccccn3)c([N+](=O)[O-])cc2F)c1=O [I.6-276]
Post-emergence action at 1.25 g/ha against ABUTH in % [1]: 100%
Post-emergence action at 5 g/ha against ABUTH in % [1]: 100%
Post-emergence action at 20 g/ha against ABUTH in % [1]: 100%
Post-emergence action at 1.25 g/ha against AMARE in % [2]: 100%
Post-emergence action at 5 g/ha against AMARE in % [2]: 100%
Post-emergence action at 20 g/ha against AMARE in % [2]: 100%
Post-emergence action at 20 g/ha against AVEFA in % (Avena fatua (AVEFA)): 80%
Post-emergence action against LOLRI in % (Lolium rigidum (LOLRI)): 90%
Post-emergence action against PHBPU in % ([3]; dosage 1.25 g/ha): 100%
Post-emergence action against PHBPU in % ([3]; dosage 5 g/ha): 100%
Post-emergence action against PHBPU in % ([3]; dosage 20 g/ha): 100%
Post-emergence action against POLCO in % ([4]; dosage 20 g/ha): 100%
Post-emergence action against VERPE (Veronica persica (VERPE); 5 g/ha): 100%
Post-emergence action against VERPE (Veronica persica (VERPE); 20 g/ha): 100%
Post-emergence action against VIOTR (Viola tricolor (VIOTR); 1.25 g/ha): 100%
Post-emergence action against VIOTR (Viola tricolor (VIOTR); 5 g/ha): 100%
Post-emergence action against VIOTR (Viola tricolor (VIOTR); 20 g/ha): 100%
Post-emergence action at 5 g/ha against ALOMY in % [5]: 80%
Post-emergence action at 20 g/ha against ALOMY in % [5]: 100%
Post-emergence action against ECHCG in % ([6]; dosage 5 g/ha): 90%
Post-emergence action against ECHCG in % ([6]; dosage 20 g/ha): 100%
Post-emergence action against MATIN in % ([7]; dosage 5 g/ha): 100%
Post-emergence action against MATIN in % ([7]; dosage 20 g/ha): 100%
Post-emergence action against SETVI (Setaria viridis (SETVI)): 100%
Post-emergence action against SETVI in % (Setaria viridis (SETVI); dosage 1.25 g/ha): 100%
Post-emergence action against SETVI in % (Setaria viridis (SETVI); dosage 5 g/ha): 100%
Post-emergence action against GLXMA in % (Glycine max (GLXMA)): 20%
Post-emergence action against TRZAS (crop plant compatibility) ([8]; 1.25 g/ha): 10%
Post-emergence action against TRZAS (crop plant compatibility) ([8]; 5 g/ha): 10%
Post-emergence action against ZEAMX (crop plant compatibility) (Zea mays (ZEAMX); 1.25 g/ha): 10%
Post-emergence action against ORYSA (crop plant compatibility) (Oryza sativa (ORYSA); 1.25 g/ha): 0%
Post-emergence action against ORYSA (crop plant compatibility) (Oryza sativa (ORYSA); 5 g/ha): 10%
Post-emergence action against ORYSA in % (Oryza sativa (ORYSA)): 20%

COCCOCCOC(=O)COc1ccccc1Oc1cc(-n2c(=O)cc(C(F)(F)F)n(C)c2=O)c(F)cc1[N+](=O)[O-] [I.6-23]
Post-emergence action at 1.25 g/ha against ABUTH in % [1]: 100%
Post-emergence action at 5 g/ha against ABUTH in % [1]: 100%
Post-emergence action at 20 g/ha against ABUTH in % [1]: 100%
Post-emergence action at 1.25 g/ha against AMARE in % [2]: 100%
Post-emergence action at 5 g/ha against AMARE in % [2]: 100%
Post-emergence action at 20 g/ha against AMARE in % [2]: 100%
Post-emergence action at 20 g/ha against AVEFA in % (Avena fatua (AVEFA)): 90%
Post-emergence action against LOLRI in % (Lolium rigidum (LOLRI)): 90%
Post-emergence action against PHBPU in % ([3]; dosage 1.25 g/ha): 80%
Post-emergence action against PHBPU in % ([3]; dosage 5 g/ha): 90%
Post-emergence action against PHBPU in % ([3]; dosage 20 g/ha): 100%
Post-emergence action against POLCO in % ([4]; dosage 1.25 g/ha): 90%
Post-emergence action against POLCO in % ([4]; dosage 5 g/ha): 100%
Post-emergence action against POLCO in % ([4]; dosage 20 g/ha): 100%
Post-emergence action against VERPE (Veronica persica (VERPE); 1.25 g/ha): 100%
Post-emergence action against VERPE (Veronica persica (VERPE); 5 g/ha): 100%
Post-emergence action against VERPE (Veronica persica (VERPE); 20 g/ha): 100%
Post-emergence action against VIOTR (Viola tricolor (VIOTR); 1.25 g/ha): 100%
Post-emergence action against VIOTR (Viola tricolor (VIOTR); 5 g/ha): 100%
Post-emergence action against VIOTR (Viola tricolor (VIOTR); 20 g/ha): 100%
Post-emergence action at 5 g/ha against ALOMY in % [5]: 80%
Post-emergence action at 20 g/ha against ALOMY in % [5]: 90%
Post-emergence action at 1.25 g/ha against ECHCG in % ([6]; 1.25 g/ha, rated visually after about 3 weeks vs untreated controls, 100% = plants have died): 80%
Post-emergence action against ECHCG in % ([6]; dosage 5 g/ha): 90%
Post-emergence action against ECHCG in % ([6]; dosage 20 g/ha): 100%
Post-emergence action against MATIN in % ([7]; dosage 1.25 g/ha): 80%
Post-emergence action against MATIN in % ([7]; dosage 5 g/ha): 100%
Post-emergence action against MATIN in % ([7]; dosage 20 g/ha): 100%
Post-emergence action against SETVI (Setaria viridis (SETVI)): 100%
Post-emergence action against SETVI in % (Setaria viridis (SETVI); dosage 1.25 g/ha): 100%
Post-emergence action against SETVI in % (Setaria viridis (SETVI); dosage 5 g/ha): 100%
Post-emergence action against GLXMA in % (Glycine max (GLXMA)): 20%
Post-emergence action against TRZAS (crop plant compatibility) ([8]; 1.25 g/ha): 10%
Post-emergence action against TRZAS (crop plant compatibility) ([8]; 5 g/ha): 20%
Post-emergence action against TRZAS (crop plant compatibility) ([8]; 20 g/ha): 20%
Post-emergence action against ZEAMX (crop plant compatibility) (Zea mays (ZEAMX); 1.25 g/ha): 10%
Post-emergence action against ZEAMX (crop plant compatibility) (Zea mays (ZEAMX); 5 g/ha): 20%
Post-emergence action against ORYSA (crop plant compatibility) (Oryza sativa (ORYSA); 1.25 g/ha): 0%
Post-emergence action against ORYSA (crop plant compatibility) (Oryza sativa (ORYSA); 5 g/ha): 10%
Post-emergence action against ORYSA in % (Oryza sativa (ORYSA)): 20%
